The target in experiment [1] is T1, Type I 5α-Reductase from Human Scalp (Homo sapiens, UniProt P18405).
T1 construct: Scalp punch biopsies from graft recipient sites were obtained from human hair transplant procedures; from tissue; host or cells: human scalp punch biopsies (hair transplant graft recipient sites), homogenate, 100,000×g pellet
T1 sequence (P18405 1-259): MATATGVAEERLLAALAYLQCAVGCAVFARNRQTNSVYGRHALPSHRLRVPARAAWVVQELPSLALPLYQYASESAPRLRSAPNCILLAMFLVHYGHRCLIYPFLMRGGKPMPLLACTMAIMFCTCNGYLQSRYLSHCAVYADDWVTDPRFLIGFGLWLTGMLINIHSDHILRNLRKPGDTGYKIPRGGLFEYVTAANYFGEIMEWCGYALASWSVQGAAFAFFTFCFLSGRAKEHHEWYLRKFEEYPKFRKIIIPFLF
The experiment in a line: Human Type I 5α-reductase assay (conversion of [3H]-testosterone to 5α-reduced metabolites). The experiment is classed as biochemical. Conditions: for percent inhibition of Type I AR: 0.3 μM.

Experiment [2] concerns the target T2, Type II 5α-Reductase from Human Prostate (Homo sapiens, UniProt P31213).
T2 construct: The same procedure as above was used for preparations using tissue from prostate surgery; from tissue; host or cells: human prostate tissue from surgery, homogenate, 100,000×g pellet
T2 sequence (P31213 1-254): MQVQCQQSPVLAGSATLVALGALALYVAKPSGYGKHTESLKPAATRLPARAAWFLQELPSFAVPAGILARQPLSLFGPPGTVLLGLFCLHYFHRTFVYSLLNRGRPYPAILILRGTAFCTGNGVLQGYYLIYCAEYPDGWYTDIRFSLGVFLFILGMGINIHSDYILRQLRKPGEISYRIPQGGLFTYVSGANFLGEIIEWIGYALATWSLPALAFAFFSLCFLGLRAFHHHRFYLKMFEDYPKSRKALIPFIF
The experiment in a line: Human Type II 5α-reductase assay (conversion of [3H]-testosterone to 5α-reduced metabolites). In kind it is biochemical.

The mark [3] stands for this setting: pH 7.5, 0.3 μM, 50 nM [3H]-testosterone, pH 7.5, 25°, 180 min, compared to control reaction mixtures, read-out: percent inhibition of Type I AR.
The mark [4] stands for this setting: pH 5.5, 0.3 μM, sodium acetate pH 5.5, 25°, 30 min, compared to control reaction mixtures, read-out: percent inhibition of Type II AR.
The mark [5] stands for this setting: 50 nM [3H]-testosterone, pH 7.5, 25°, 180 min, compared to control reaction mixtures.

The structures appear in SMILES notation. Where two headings read alike, the source gives them in different places.

Broadly, the inhibition is the drop in the measured response relative to a control, in per cent. As to `CN1C(=O)CC[C@]2(C)c3ccc(C(c4ccccc4)c4ccccc4)cc3CC[C@@H]12` [Example 139, (4aR)-(10bR)-8-diphenylmethyl-4,10b-dimethyl-1,2,3,4,-4a,5,6,10b-octahydrobenzo[f]quinolin-3-one], the values for the inhibition at 0.3 µM in experiment [1] (setting [3]) and in experiment [2] (setting [4]) were 30% and 59%, respectively.

Consider `CN1C(=O)CC[C@]2(C)c3ccc(-c4ccc5c(c4)OCCO5)cc3CC[C@@H]12` [Example 29, (+)-(4aR)-(10bR)-4-methyl-8-(3,4-ethylenedioxyphenyl)-10b-methyl-1,2,3,4,4a,5,6,10b-octahydrobenzo[f]quinolin-3-one], for which the inhibition at 0.3 µM in experiment [1] (setting [3]) is 78%; in experiment [2] (setting [4]), 26%.

Regarding `Cc1cccc(-c2ccc3c(c2)CC[C@H]2N(C)C(=O)CC[C@]32C)c1C` [Example 69, (+)-(4aR)-(10bR)-4-methyl-8-(2,3-dimethylphenyl)-10b-methyl-1,2,3,4,4a,5,6,10b-octahydrobenzo[f]quinolin-3-one], the figures for the inhibition at 0.3 µM in experiment [1] (setting [3]) and in experiment [2] (setting [4]) were 84% and 6%, respectively.

In the case of `CN1C(=O)CC[C@]2(C)c3ccc(-c4cc(F)c(F)c(F)c4)cc3CC[C@@H]12` [Example 206, (+)-(4aR)-(10bR)-4-methyl-8-(3,4,5-trifluorophenyl)-10b-methyl-1,2,3,4,4a,5,6,10b-octahydrobenzo[f]quinolin-3-one], the “percent inhibition of Type I AR” value in experiment [1] (setting [5]) amounted to 100%. Further, the inhibition at 0.3 µM in experiment [1] (setting [3]) came out at 97%; in experiment [2] (setting [4]) it was 32%.

Consider `CSc1cccc(-c2ccc3c(c2)CC[C@H]2N(C)C(=O)CC[C@]32C)c1` [Example 212, (+)-(4aR)-(10bR)-4-methyl-8-(3-methylthiophenyl)-10b-methyl-1,2,3,4,4a,5,6,10b-octahydrobenzo[f]quinolin-3-one], for which the inhibition at 0.3 µM in experiment [1] (setting [3]) worked out at 73%; in experiment [2] (setting [4]), 31%.

With `C[C@]12CCC(=O)N[C@@H]1CCc1cc(Sc3ccc(F)cc3)ccc12` [Example 14, (+)-(4aR)-(10bR)-8-(4-fluorophenylthio)-10b-methyl-1,2,3,4,4a,5,6,10b-octahydrobenzo[f]quinolin-3-one], the inhibition at 0.3 µM in experiment [1] (setting [3]) worked out at 37%; in experiment [2] (setting [4]), 25%.

In the case of `CN1C(=O)CC[C@]2(C)c3ccc(-c4n[nH]c5ccccc45)cc3CC[C@@H]12` [Example 257, (+)-(4aR)-(10bR)-4-methyl-8-(3-indazolyl)-10b-methyl-1,2,3,4,4a,5,6,10b-octahydrobenzo[f]quinolin-3-one], the figures for the inhibition at 0.3 µM in experiment [1] (setting [3]) and in experiment [2] (setting [4]) were 36% and 58%, respectively.

For the molecule `CN1C(=O)CC[C@]2(C)c3ccc(-c4cc(F)cc(F)c4F)cc3CC[C@@H]12` [Example 130, (+)-(4aR)-(10bR)-4-methyl-8-(2,3,5-trifluorophenyl)-10b-methyl-1,2,3,4,4a,5,6,10b-octahydrobenzo[f]quinolin-3-one], the inhibition at 0.3 µM turned out to be 83% in experiment [1] (setting [3]) and 29% in experiment [2] (setting [4]).

For `CN1C(=O)CC[C@]2(C)c3ccc(-c4ccc(-c5ccccc5)cc4)cc3CC[C@@H]12` [Example 84, (+)-(4aR)-(10bR)-4-methyl-8-(4-biphenyl)-10b-methyl-1,2,3,4,4a,5,6,10b-octahydrobenzo[f]quinolin-3-one], the inhibition at 0.3 µM in experiment [1] (setting [3]) was 88%; in experiment [2] (setting [4]), 23%.

For the molecule `CN1C(=O)CC[C@]2(C)c3ccc(Sc4nc5c(ccc6ccccc65)s4)cc3CC[C@@H]12` [Example 163, (+)-(4aR)-(10bR)-4-methyl-8-(2-naphtho<1,2-d>-thiazolylthio)-10b-methyl-1,2,3,4,4a,5,6,10b-octahydrobenzo[f]-quinolin-3-one], the inhibition at 0.3 µM in experiment [1] (setting [3]) came to 80%; in experiment [2] (setting [4]) it was 86%.

Regarding `CN1C(=O)CC[C@]2(C)c3ccc(C#Cc4ccccc4)cc3CC[C@@H]12` [Example 284, (4aR)-(10bR)-4,10b-dimethyl-8-(2-phenylethynyl)-1,2,3,4,4a,5,6,10b-octahydrobenzo[f]quinolin-3-one], the inhibition at 0.3 µM in experiment [1] (pH 7.5, read-out: percent inhibition of Type I AR) was found to be 86%; in experiment [2] (pH 5.5, read-out: percent inhibition of Type II AR), 63%.

Regarding `CN1C(=O)CC[C@]2(C)c3ccc(-c4nc5ccccc5[nH]4)cc3CC[C@@H]12` [Example 256, (+)-(4aR)-(10bR)-4-methyl-8-(2-benzimidazolyl)-10b-methyl-1,2,3,4,4a,5,6,10b-octahydrobenzo[f]quinolin-3-one], the inhibition at 0.3 µM was found to be 38% in experiment [1] (setting [3]) and 18% in experiment [2] (setting [4]).

As to `CN1C(=O)CC[C@]2(C)c3ccc(-c4ccccc4C(F)(F)F)cc3CC[C@@H]12` [Example 43, (+)-(4aR)-(10bR)-4-methyl-8-(2-trifluoromethylphenyl)-10b-methyl-1,2,3,4,4a,5,6,10b-octahydrobenzo[f]quinolin-3-one], the inhibition at 0.3 µM in experiment [1] (setting [3]) came out at 68%; in experiment [2] (setting [4]), 18%.

For `CN1C(=O)CC[C@]2(C)c3ccc(-c4ccc(F)c(F)c4)cc3CC[C@@H]12` [Example 27, (+)-(4aR)-(10bR)-4-methyl-8-(3,4-difluorophenyl)-10b-methyl-1,2,3,4,4a,5,6,10b-octahydrobenzo[f]quinolin-3-one], in experiment [1] (setting [3]), the inhibition at 0.3 µM is 92%.

Take `CN1C(=O)CC[C@]2(C)c3ccc(Sc4ccccc4Cl)cc3CC[C@@H]12` [Example 99, (+)-(4aR)-(10bR)-4,10b-dimethyl-8-(2-chlorophenylthio)-1,2,3,4,-4a,5,6,10b-octahydrobenzo[f]quinolin-3-one]: the inhibition at 0.3 µM in experiment [1] (setting [3]) is 88%.

For `CN1C(=O)CC[C@]2(C)c3ccc(-c4cccc(F)c4F)cc3CC[C@@H]12` [Example 26, (+)-(4aR)-(10bR)-4-methyl-8-(2,3-difluorophenyl)-10b-methyl-1,2,3,4,4a,5,6,10b-octahydrobenzo[f]quinolin-3-one], in experiment [1] (setting [3]), the inhibition at 0.3 µM turned out to be 86%.

Turning to `C[C@]12CCC(=O)N[C@@H]1CCc1cc(-c3cnc4ccccc4c3)ccc12` [Example 196, (+)-(4aR)-(10bR)-8-(3-quinolinyl)-10b-methyl-1,2,3,4,4a,-5,6,10b-octahydrobenzo[f]quinolin-3-one], in experiment [1] (setting [5]), the “percent inhibition of Type I AR” value came to 11%.

For the molecule `CN1C(=O)CC[C@]2(C)c3ccc(-c4ccc([N+](=O)[O-])cc4)cc3CC[C@@H]12` [Example 119, (+)-(4aR)-(10bR)-4-methyl-8-(4-nitrophenyl)-10b-methyl-1,2,3,4,4a,5,6,10b-octahydrobenzo[f]quinolin-3-one], the inhibition at 0.3 µM in experiment [1] (setting [3]) is 84%.

Take `CCOc1ccc(-c2ccc(-c3ccc4c(c3)CC[C@H]3N(C)C(=O)CC[C@]43C)cc2)cc1` [Example 89, (+)-(4aR)-(10bR)-4-methyl-8-(4-[4-ethoxy]biphenyl)-10b-methyl-1,2,3,4,4a,5,6,10b-octahydrobenzo[f]quinolin-3-one]: in experiment [2] (setting [4]), the inhibition at 0.3 µM is 15%.

For the molecule `CN1C(=O)CC[C@]2(C)c3ccc(-c4ccc5c(c4)OCO5)cc3CC[C@@H]12` [Example 70, (+)-(4aR)-(10bR)-4-methyl-8-(3,4-methylenedioxyphenyl)-10b-methyl-1,2,3,4,4a,5,6,10b-octahydrobenzo[f]quinolin-3-one], the inhibition at 0.3 µM in experiment [2] (setting [4]) came to 36%.

Take `C[C@]12CCC(=O)N[C@@H]1CCc1cc(-c3cc(C(F)(F)F)nc4c(C(F)(F)F)cccc34)ccc12` [Example 197, (+)-(4aR)-(10bR)-8-(4-[2,8-bistrifluoromethyl]quinolinyl)-10b-methyl-1,2,3,4,4a,5,6,10b-octahydrobenzo[f]quinolin-3-one]: the inhibition at 0.3 µM in experiment [2] (setting [4]) came out at 37%.

`C[C@]12CCC(=O)N[C@@H]1CCc1cc(-c3cccc([N+](=O)[O-])c3)ccc12` [Example 93, (+)-(4aR)-(10bR)-8-(3-nitrophenyl)-10b-methyl-1,2,3,4,4a,5,6,10b-octahydrobenzo[f]quinolin-3-one]: the inhibition at 0.3 µM in experiment [2] (setting [4]) amounted to 9%.

Consider `CN1C(=O)CC[C@]2(C)c3ccc(/C=C/c4cnc5ccccc5c4)cc3CC[C@@H]12` [Example 282, (4aR)-(10bR)-4,10b-dimethyl-8-(2-[3-quinolinyl]ethenyl)-1,2,3,4,4a,5,6,10b-octahydrobenzo[f]quinolin-3-one], for which the inhibition at 0.3 µM in experiment [2] (setting [4]) is 37%.

As to `CSc1ccccc1-c1ccc2c(c1)CC[C@H]1N(C)C(=O)CC[C@]21C` [Example 127, (+)-(4aR)-(10bR)-4-methyl-8-(2-methylthiophenyl)-10b-methyl-1,2,3,4,4a,5,6,10b-octahydrobenzo[f]quinolin-3-one], in experiment [2] (setting [4]), the inhibition at 0.3 µM came out at 40%.

As for `C[C@]12CCC(=O)N[C@@H]1CCc1cc(-c3nccs3)ccc12` [Example 198, (+)-(4aR)-(10bR)-8-(2-thiazolyl)-10b-methyl-1,2,3,4,4a,-5,6,10b-octahydrobenzo[f]quinolin-3-one], the inhibition at 0.3 µM in experiment [2] (setting [4]) turned out to be 7%.

(Values after patent US5622962A, “5α-reductase inhibitors” (priority 1995, dated 1997).)
